# According to patent US11883407B2, “Medicament for the treatment of chronic cough” (Shionogi & Co., Ltd., priority 2018, dated 2024):
# Where two headings read alike, the source gives them in different places.
# Key:
# [1] = system: nerve fibers of the ganglion inferius; settings: guinea pig lung tissue; cited from earlier work
# [2] = human, in vivo; cited from earlier work
# [3] = cited from earlier work
# [4] = system: pulmonary vagal afferent C and A fibers; settings: cited from earlier work
# [5] = Study MK-7264-012 (NCT02612610) of Gefapixant: taste-related adverse events; type: in vivo, human; settings: 50 mg; difference between treatment groups
# Method: In addition, a large number of clinical trial protocols for AF-219 (MK-7264, Gefapixant) and their results are recorded on ClinicalTrials.gov. For example, the results of a trial in which 253 of the 367 candidate patients were randomly assigned to a twice daily oral administration group of a placebo, 7.5 mg, 20 mg or 50 mg of AF-219 to confirm the therapeutic effect after 12 weeks, have been published under the identification number NCT02612610. Among the trial results, it was published that as one of the adverse events, for example, dysgeusia was confirmed in each dose group: 9.52% (7.5 mg administration group, 6 out of 63 cases), 33.33% (20 mg administration group, 21 out of 63 cases) and 47.62% (50 mg administration group, 30 out of 63 cases). […]
# Based on the above results, for the proportion of subjects who experienced any of the taste-related adverse events, the study design of each study was taken into account, and as the difference between each investigational drug and placebo, the mean of differences of incidence in the same subject between the treatments and the two-sided 95% confidence interval thereof were calculated for Test Example 6, and the difference of incidence between the Gefapixant 50 mg treatment group and the placebo treatment group and the two-sided 95% confidence interval thereof were calculated for the study MK-7264-012.
# [6] = system: patients with chronic cough; settings: cited from earlier work
# [7] = cited from earlier work; for dysgeusia as adverse event: 12 weeks
# [8] = 50 mg twice daily, 63 subjects in safety analysis
compound,measurement,setting,value
COc1cc(C(C)C)c(Oc2cnc(N)nc2N)cc1I [AF-353],action potential in nerve fibers of the ganglion inferius evoked by ATP or αβ-methylene ATP,[1],almost completely suppressed
Cc1cnc(-c2cc(O[C@@H]3CCOC3)cc(C(=O)N[C@H](C)c3cnc(C(F)(F)F)nc3)c2)s1 [BAY-1817080],number of coughs per 24 hours,[2],a reduction in the number of coughs per 24 hours was confirmed
CNC(=O)c1cc(F)c(-c2nc3cc(C)ccn3c2C[C@H]2CN(C(=O)OC)CCO2)c(F)c1 [BLU-5937],"taste changes, subjects",[3]; 100 mg (n=16),6.3%
same,"partial taste loss, subjects",[3]; 400 mg (n=16),6.25%
same,"taste changes, subjects",[3]; 400 mg (n=16),37.5%
same,"partial taste loss, subjects",[3]; 800 mg (n=8),12.5%
same,"taste changes, subjects",[3]; 800 mg (n=8),62.5%
same,"taste changes, subjects",[3]; 1200 mg (n=8),25%
same,course of taste-related adverse events,[3]; single and repeated administration,all taste-related adverse events were transient and sporadic
"O=C(O)c1cc(C(=O)O)c(C(=O)N(Cc2cccc(Oc3ccccc3)c2)[C@H]2CCCc3ccccc32)cc1C(=O)O [Compound A-317491, (5-({3-phenoxybenzyl)[(1S)-1,2,3,4-tetrahydro-1-naphthalenyl]amino}carbonyl)-1,2,4-benzenetricarboxylic acid]","activity of pulmonary vagal afferent C and A fibers by α,βmATP",[4],inhibits activity of the pulmonary vagal afferent C and A fibers
COc1cc(C(C)C)c(Oc2cnc(N)nc2N)cc1S(N)(=O)=O [Gefapixant],Difference of incidence of any of the taste-related adverse events (drug − placebo),[5],74.6%
same,hypogeusia as adverse event,[6]; 13 out of 24 cases,54%
same,dysgeusia as adverse event,[6]; 21 out of 24 cases,88%
same,participants who discontinued the trial due to a taste disturbance (hypogeusia or dysgeusia),"[6]; human, in vivo",6
same,taste-related disorder,[6]; patients administered with AF-219,all patients developed some kind of taste-related disorder
same,reduction of the frequency of daytime cough compared to the placebo group,[6]; patients with chronic cough,75%
same,dysgeusia as adverse event,"[7]; 7.5 mg twice daily, 6 out of 63 cases",9.52%
same,dysgeusia as adverse event,"[7]; 20 mg twice daily, 21 out of 63 cases",33.33%
same,dysgeusia as adverse event,"[7]; 50 mg twice daily, 30 out of 63 cases",47.62%
same,"Ageusia, number of subjects and incidence",[7]; [8],13 (20.6%)
same,"Any of taste-related adverse events, number of subjects and incidence",[7]; [8],51 (81.0%)
same,"Dysgeusia, number of subjects and incidence",[7]; [8],30 (47.6%)
same,"Hypogeusia, number of subjects and incidence",[7]; [8],15 (23.8%)
TNP-ATP,action potential in nerve fibers of the ganglion inferius evoked by ATP or αβ-methylene ATP,[1],almost completely suppressed
